Measurements as given in the kinase profiling compilation of Christmann-Franck et al. (2016).

Assays:
Assay in all cases: KINOMEscan competition binding
Conditions in all cases: compound 10.0 µM
MARK1 (human) = MARK1 (human) (UniProt Q9P0L2)
PRKG2 (human) = PRKG2 (human) (UniProt Q13237)
BRAF (human) = BRAF (human) (UniProt P15056)
LCK (human) = LCK (human) (UniProt P06239)
LIMK1 (human) = LIMK1 (human) (UniProt P53667)
CLK4 (human) = CLK4 (human) (UniProt Q9HAZ1)
MAPK11 (human) = MAPK11 (human) (UniProt Q15759)
PKMYT1 (human) = PKMYT1 (human) (UniProt Q99640)
LTK (human) = LTK (human) (UniProt P29376)
ROCK1 (human) = ROCK1 (human) (UniProt Q13464)
CDK19 (human) = CDK19 (human) (UniProt Q9BWU1)
[1] = system: PIK3CA (human), P42336 [C420R]
PRPF4B (human) = PRPF4B (human) (UniProt Q13523)
PLK3 (human) = PLK3 (human) (UniProt Q9H4B4)
IKBKB (human) = IKBKB (human) (UniProt O14920)
PRKCH (human) = PRKCH (human) (UniProt P24723)
[2] = system: PIK3CA (human), P42336 [E545K]
MKNK1 (human) = MKNK1 (human) (UniProt Q9BUB5)
ROS1 (human) = ROS1 (human) (UniProt P08922)
FLT1 (human) = FLT1 (human) (UniProt P17948)
FLT4 (human) = FLT4 (human) (UniProt P35916)
CAMKK1 (human) = CAMKK1 (human) (UniProt Q8N5S9)
LYN (human) = LYN (human) (UniProt P07948)
ICK (human) = ICK (human) (UniProt Q9UPZ9)
MAP4K5 (human) = MAP4K5 (human) (UniProt Q9Y4K4)
CAMK1G (human) = CAMK1G (human) (UniProt Q96NX5)
MLTK (human) = MLTK (human) (UniProt Q9NYL2)
ERBB2 (human) = ERBB2 (human) (UniProt P04626)
MAPK8 (human) = MAPK8 (human) (UniProt P45983)
AXL (human) = AXL (human) (UniProt P30530)
STK25 (human) = STK25 (human) (UniProt O00506)
PRKACB (human) = PRKACB (human) (UniProt P22694)
BLK (human) = BLK (human) (UniProt P51451)
[3] = target: TYK2 JH2 pseudokinase (human) (UniProt P29597)
AKT2 (human) = AKT2 (human) (UniProt P31751)
ANKK1 (human) = ANKK1 (human) (UniProt Q8NFD2)
HIPK2 (human) = HIPK2 (human) (UniProt Q9H2X6)
DAPK2 (human) = DAPK2 (human) (UniProt Q9UIK4)
STK35 (human) = STK35 (human) (UniProt Q8TDR2)
CDC2L2 (human) = CDC2L2 (human) (UniProt Q9UQ88)
HIPK3 (human) = HIPK3 (human) (UniProt Q9H422)
MAP2K4 (human) = MAP2K4 (human) (UniProt P45985)

ROS1 (human), sequence (P08922 whole entry, looked up): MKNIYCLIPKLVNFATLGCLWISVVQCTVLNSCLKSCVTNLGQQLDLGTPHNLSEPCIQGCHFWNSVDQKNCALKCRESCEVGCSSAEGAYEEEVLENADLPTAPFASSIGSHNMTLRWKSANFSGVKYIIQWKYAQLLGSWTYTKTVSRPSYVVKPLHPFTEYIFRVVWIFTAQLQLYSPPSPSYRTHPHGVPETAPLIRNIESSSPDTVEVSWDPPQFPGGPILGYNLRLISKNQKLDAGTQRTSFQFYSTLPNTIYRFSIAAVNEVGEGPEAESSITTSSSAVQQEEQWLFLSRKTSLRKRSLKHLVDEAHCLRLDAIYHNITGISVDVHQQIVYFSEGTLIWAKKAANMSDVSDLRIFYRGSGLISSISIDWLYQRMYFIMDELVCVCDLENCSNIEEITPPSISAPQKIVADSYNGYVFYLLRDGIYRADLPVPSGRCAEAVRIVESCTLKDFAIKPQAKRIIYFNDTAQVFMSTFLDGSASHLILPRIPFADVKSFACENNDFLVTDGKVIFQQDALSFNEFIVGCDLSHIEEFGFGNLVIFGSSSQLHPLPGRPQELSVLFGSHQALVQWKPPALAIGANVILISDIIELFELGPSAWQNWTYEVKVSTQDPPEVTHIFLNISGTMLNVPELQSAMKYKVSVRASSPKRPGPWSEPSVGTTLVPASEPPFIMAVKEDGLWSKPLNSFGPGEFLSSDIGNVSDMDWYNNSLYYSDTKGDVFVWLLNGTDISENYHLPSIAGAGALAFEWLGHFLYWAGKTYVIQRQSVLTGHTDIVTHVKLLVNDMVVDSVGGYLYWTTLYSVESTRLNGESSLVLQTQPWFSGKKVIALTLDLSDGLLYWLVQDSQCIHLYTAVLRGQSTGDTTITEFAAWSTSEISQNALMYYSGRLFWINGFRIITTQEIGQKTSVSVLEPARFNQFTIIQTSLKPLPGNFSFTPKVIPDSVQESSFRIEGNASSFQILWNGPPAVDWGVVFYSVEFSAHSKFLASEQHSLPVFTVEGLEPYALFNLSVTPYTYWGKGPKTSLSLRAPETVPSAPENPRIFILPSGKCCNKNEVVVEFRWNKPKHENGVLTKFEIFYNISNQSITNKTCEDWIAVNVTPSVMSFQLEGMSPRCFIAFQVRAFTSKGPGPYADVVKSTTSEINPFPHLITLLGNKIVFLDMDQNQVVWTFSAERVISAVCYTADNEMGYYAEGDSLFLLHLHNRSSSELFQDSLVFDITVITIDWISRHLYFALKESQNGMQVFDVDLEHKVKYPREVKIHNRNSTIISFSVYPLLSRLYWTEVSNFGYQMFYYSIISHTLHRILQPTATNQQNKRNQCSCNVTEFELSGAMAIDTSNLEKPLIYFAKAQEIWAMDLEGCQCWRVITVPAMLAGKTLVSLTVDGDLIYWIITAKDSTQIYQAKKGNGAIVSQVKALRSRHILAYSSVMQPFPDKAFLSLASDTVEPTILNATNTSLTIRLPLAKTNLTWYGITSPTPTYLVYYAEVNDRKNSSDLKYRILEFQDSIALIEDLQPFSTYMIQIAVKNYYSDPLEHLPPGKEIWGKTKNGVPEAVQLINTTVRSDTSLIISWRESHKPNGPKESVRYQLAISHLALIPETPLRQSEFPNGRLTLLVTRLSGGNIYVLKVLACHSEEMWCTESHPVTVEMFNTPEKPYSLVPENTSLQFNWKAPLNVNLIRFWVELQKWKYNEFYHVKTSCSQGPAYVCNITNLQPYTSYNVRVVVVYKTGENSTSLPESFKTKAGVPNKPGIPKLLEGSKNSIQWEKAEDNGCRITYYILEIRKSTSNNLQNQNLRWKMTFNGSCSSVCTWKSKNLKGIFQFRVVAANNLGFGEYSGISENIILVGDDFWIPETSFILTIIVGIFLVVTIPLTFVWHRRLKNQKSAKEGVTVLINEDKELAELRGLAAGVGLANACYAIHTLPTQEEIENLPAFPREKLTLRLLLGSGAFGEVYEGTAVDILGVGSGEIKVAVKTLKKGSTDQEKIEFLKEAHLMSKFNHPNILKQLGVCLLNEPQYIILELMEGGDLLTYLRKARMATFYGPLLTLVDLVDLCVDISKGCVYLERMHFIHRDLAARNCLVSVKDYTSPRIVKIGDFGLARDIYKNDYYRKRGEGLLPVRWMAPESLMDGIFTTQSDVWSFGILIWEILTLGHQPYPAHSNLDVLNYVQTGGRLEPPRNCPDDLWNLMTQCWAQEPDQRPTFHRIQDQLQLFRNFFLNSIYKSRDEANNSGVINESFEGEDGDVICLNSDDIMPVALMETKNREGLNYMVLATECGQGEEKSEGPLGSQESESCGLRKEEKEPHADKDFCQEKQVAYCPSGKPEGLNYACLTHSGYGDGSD
FLT1 (human), sequence (P17948 whole entry, looked up): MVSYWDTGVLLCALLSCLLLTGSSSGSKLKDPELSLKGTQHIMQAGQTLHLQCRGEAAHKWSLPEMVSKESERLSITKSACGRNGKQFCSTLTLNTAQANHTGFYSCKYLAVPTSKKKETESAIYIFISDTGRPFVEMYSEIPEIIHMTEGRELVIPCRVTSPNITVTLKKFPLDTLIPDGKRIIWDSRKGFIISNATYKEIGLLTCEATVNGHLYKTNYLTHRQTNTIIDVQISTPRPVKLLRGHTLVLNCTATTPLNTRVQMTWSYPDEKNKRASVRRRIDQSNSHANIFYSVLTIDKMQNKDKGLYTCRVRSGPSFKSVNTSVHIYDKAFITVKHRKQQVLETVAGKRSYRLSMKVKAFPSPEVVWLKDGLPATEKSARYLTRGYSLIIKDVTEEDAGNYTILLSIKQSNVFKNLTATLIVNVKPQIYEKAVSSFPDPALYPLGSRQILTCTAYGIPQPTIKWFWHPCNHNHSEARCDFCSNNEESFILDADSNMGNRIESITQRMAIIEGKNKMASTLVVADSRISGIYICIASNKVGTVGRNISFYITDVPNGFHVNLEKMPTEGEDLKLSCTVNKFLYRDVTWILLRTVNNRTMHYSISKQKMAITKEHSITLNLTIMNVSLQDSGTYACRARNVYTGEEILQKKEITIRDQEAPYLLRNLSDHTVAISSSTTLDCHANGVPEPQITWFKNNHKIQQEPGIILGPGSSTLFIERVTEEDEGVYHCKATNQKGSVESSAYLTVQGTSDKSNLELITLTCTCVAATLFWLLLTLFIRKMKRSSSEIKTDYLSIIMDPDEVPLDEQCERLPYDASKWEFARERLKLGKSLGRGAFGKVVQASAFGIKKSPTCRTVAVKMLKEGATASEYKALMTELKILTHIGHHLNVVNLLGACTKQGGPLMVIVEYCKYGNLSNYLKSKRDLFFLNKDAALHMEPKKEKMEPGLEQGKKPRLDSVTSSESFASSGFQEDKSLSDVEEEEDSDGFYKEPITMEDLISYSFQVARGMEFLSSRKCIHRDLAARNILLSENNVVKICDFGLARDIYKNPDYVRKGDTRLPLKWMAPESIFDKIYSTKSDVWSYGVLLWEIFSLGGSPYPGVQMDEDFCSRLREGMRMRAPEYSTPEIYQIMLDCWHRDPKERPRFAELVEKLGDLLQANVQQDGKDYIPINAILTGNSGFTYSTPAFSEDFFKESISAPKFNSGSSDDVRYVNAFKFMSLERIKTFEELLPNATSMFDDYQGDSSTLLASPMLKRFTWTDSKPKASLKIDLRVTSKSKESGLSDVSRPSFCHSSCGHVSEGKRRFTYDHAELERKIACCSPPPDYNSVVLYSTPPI
IKBKB (human), sequence (O14920 whole entry, looked up): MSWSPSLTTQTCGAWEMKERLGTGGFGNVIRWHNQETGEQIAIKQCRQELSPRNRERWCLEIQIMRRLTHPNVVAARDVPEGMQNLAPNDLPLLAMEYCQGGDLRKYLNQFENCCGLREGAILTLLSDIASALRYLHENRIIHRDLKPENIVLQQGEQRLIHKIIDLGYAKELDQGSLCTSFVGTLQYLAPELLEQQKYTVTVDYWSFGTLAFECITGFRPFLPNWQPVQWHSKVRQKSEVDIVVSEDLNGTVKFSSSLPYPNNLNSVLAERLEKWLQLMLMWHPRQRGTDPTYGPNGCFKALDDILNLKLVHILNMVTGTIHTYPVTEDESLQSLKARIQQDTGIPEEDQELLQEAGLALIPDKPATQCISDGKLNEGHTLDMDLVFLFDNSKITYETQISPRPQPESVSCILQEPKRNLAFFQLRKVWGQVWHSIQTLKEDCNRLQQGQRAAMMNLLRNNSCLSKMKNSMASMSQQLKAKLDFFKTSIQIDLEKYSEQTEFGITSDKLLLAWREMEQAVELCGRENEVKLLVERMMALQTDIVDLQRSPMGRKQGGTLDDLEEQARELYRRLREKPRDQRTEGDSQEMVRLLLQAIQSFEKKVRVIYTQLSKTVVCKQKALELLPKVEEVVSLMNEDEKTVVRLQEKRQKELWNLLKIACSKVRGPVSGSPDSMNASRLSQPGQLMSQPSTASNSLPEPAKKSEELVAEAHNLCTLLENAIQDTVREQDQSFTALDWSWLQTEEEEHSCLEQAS
CLK4 (human), sequence (Q9HAZ1 whole entry, looked up): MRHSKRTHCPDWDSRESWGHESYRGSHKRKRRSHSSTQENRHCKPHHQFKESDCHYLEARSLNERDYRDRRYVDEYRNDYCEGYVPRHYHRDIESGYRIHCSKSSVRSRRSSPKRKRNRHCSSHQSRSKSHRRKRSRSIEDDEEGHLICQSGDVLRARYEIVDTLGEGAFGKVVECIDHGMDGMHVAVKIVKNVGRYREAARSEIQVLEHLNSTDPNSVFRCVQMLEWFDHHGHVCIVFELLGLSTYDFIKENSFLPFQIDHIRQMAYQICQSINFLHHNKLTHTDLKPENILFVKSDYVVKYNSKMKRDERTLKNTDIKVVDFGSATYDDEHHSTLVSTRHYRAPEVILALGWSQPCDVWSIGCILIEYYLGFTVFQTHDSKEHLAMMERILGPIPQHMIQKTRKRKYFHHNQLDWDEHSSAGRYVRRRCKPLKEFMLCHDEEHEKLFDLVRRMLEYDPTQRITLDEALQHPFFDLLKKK

## Cn1cc(C2=C(c3ccc(Cl)cc3Cl)C(=O)NC2=O)c2ccccc21
MARK1 (human)
  kinase still bound, per cent of control: 96%
PRKG2 (human)
  kinase still bound, per cent of control: 73%
BRAF (human)
  kinase still bound, per cent of control: 80%
LCK (human)
  kinase still bound, per cent of control: 96%
LIMK1 (human)
  kinase still bound, per cent of control: 93%
CLK4 (human)
  kinase still bound, per cent of control: 7.8%
MAPK11 (human)
  kinase still bound, per cent of control: 98%
PKMYT1 (human)
  kinase still bound, per cent of control: 100%
LTK (human)
  kinase still bound, per cent of control: 100%
ROCK1 (human)
  kinase still bound, per cent of control: 68%
CDK19 (human)
  kinase still bound, per cent of control: 100%
[1]
  kinase still bound, per cent of control: 86%
PRPF4B (human)
  kinase still bound, per cent of control: 100%
PLK3 (human)
  kinase still bound, per cent of control: 97%
IKBKB (human)
  kinase still bound, per cent of control: 83%
PRKCH (human)
  kinase still bound, per cent of control: 79%
[2]
  kinase still bound, per cent of control: 100%
MKNK1 (human)
  kinase still bound, per cent of control: 84%
ROS1 (human)
  kinase still bound, per cent of control: 100%
FLT1 (human)
  kinase still bound, per cent of control: 100%
FLT4 (human)
  kinase still bound, per cent of control: 97%
CAMKK1 (human)
  kinase still bound, per cent of control: 68%
LYN (human)
  kinase still bound, per cent of control: 100%
ICK (human)
  kinase still bound, per cent of control: 12%
MAP4K5 (human)
  kinase still bound, per cent of control: 83%
CAMK1G (human)
  kinase still bound, per cent of control: 70%
MLTK (human)
  kinase still bound, per cent of control: 93%
ERBB2 (human)
  kinase still bound, per cent of control: 100%
MAPK8 (human)
  kinase still bound, per cent of control: 77%
AXL (human)
  kinase still bound, per cent of control: 100%
STK25 (human)
  kinase still bound, per cent of control: 76%
PRKACB (human)
  kinase still bound, per cent of control: 100%
BLK (human)
  kinase still bound, per cent of control: 100%
[3]
  kinase still bound, per cent of control: 32%
AKT2 (human)
  kinase still bound, per cent of control: 100%
ANKK1 (human)
  kinase still bound, per cent of control: 86%
HIPK2 (human)
  kinase still bound, per cent of control: 15%
DAPK2 (human)
  kinase still bound, per cent of control: 67%
STK35 (human)
  kinase still bound, per cent of control: 94%
CDC2L2 (human)
  kinase still bound, per cent of control: 100%
HIPK3 (human)
  kinase still bound, per cent of control: 56%
MAP2K4 (human)
  kinase still bound, per cent of control: 82%

## Cc1cnc(-c2cnc(NCCNc3ccc(C#N)cn3)nc2-c2ccc(Cl)cc2Cl)[nH]1
MARK1 (human)
  kinase still bound, per cent of control: 91%
PRKG2 (human)
  kinase still bound, per cent of control: 100%
BRAF (human)
  kinase still bound, per cent of control: 50%
LCK (human)
  kinase still bound, per cent of control: 100%
LIMK1 (human)
  kinase still bound, per cent of control: 100%
CLK4 (human)
  kinase still bound, per cent of control: 62%
MAPK11 (human)
  kinase still bound, per cent of control: 100%
PKMYT1 (human)
  kinase still bound, per cent of control: 100%
LTK (human)
  kinase still bound, per cent of control: 100%
ROCK1 (human)
  kinase still bound, per cent of control: 85%
CDK19 (human)
  kinase still bound, per cent of control: 100%
[1]
  kinase still bound, per cent of control: 100%
PRPF4B (human)
  kinase still bound, per cent of control: 100%
PLK3 (human)
  kinase still bound, per cent of control: 80%
IKBKB (human)
  kinase still bound, per cent of control: 80%
PRKCH (human)
  kinase still bound, per cent of control: 100%
[2]
  kinase still bound, per cent of control: 100%
MKNK1 (human)
  kinase still bound, per cent of control: 100%
ROS1 (human)
  kinase still bound, per cent of control: 100%
FLT1 (human)
  kinase still bound, per cent of control: 79%
FLT4 (human)
  kinase still bound, per cent of control: 100%
CAMKK1 (human)
  kinase still bound, per cent of control: 100%
LYN (human)
  kinase still bound, per cent of control: 100%
ICK (human)
  kinase still bound, per cent of control: 39%
MAP4K5 (human)
  kinase still bound, per cent of control: 100%
CAMK1G (human)
  kinase still bound, per cent of control: 100%
ERBB2 (human)
  kinase still bound, per cent of control: 100%
MAPK8 (human)
  kinase still bound, per cent of control: 94%
AXL (human)
  kinase still bound, per cent of control: 100%
STK25 (human)
  kinase still bound, per cent of control: 90%
PRKACB (human)
  kinase still bound, per cent of control: 100%
BLK (human)
  kinase still bound, per cent of control: 100%
[3]
  kinase still bound, per cent of control: 68%
AKT2 (human)
  kinase still bound, per cent of control: 100%
ANKK1 (human)
  kinase still bound, per cent of control: 100%
HIPK2 (human)
  kinase still bound, per cent of control: 100%
DAPK2 (human)
  kinase still bound, per cent of control: 94%
STK35 (human)
  kinase still bound, per cent of control: 100%
CDC2L2 (human)
  kinase still bound, per cent of control: 100%
HIPK3 (human)
  kinase still bound, per cent of control: 100%
MAP2K4 (human)
  kinase still bound, per cent of control: 70%

## COc1ccc(CNC(=O)Nc2ncc([N+](=O)[O-])s2)cc1
MARK1 (human)
  kinase still bound, per cent of control: 100%
PRKG2 (human)
  kinase still bound, per cent of control: 100%
BRAF (human)
  kinase still bound, per cent of control: 57%
LCK (human)
  kinase still bound, per cent of control: 100%
LIMK1 (human)
  kinase still bound, per cent of control: 100%
CLK4 (human)
  kinase still bound, per cent of control: 87%
MAPK11 (human)
  kinase still bound, per cent of control: 100%
PKMYT1 (human)
  kinase still bound, per cent of control: 53%
LTK (human)
  kinase still bound, per cent of control: 100%
ROCK1 (human)
  kinase still bound, per cent of control: 61%
CDK19 (human)
  kinase still bound, per cent of control: 100%
[1]
  kinase still bound, per cent of control: 95%
PRPF4B (human)
  kinase still bound, per cent of control: 100%
PLK3 (human)
  kinase still bound, per cent of control: 100%
IKBKB (human)
  kinase still bound, per cent of control: 100%
PRKCH (human)
  kinase still bound, per cent of control: 100%
[2]
  kinase still bound, per cent of control: 100%
MKNK1 (human)
  kinase still bound, per cent of control: 100%
ROS1 (human)
  kinase still bound, per cent of control: 100%
FLT1 (human)
  kinase still bound, per cent of control: 57%
FLT4 (human)
  kinase still bound, per cent of control: 100%
CAMKK1 (human)
  kinase still bound, per cent of control: 93%
LYN (human)
  kinase still bound, per cent of control: 74%
ICK (human)
  kinase still bound, per cent of control: 87%
MAP4K5 (human)
  kinase still bound, per cent of control: 100%
CAMK1G (human)
  kinase still bound, per cent of control: 100%
MLTK (human)
  kinase still bound, per cent of control: 100%
ERBB2 (human)
  kinase still bound, per cent of control: 95%
MAPK8 (human)
  kinase still bound, per cent of control: 100%
AXL (human)
  kinase still bound, per cent of control: 100%
STK25 (human)
  kinase still bound, per cent of control: 100%
PRKACB (human)
  kinase still bound, per cent of control: 98%
[3]
  kinase still bound, per cent of control: 66%
AKT2 (human)
  kinase still bound, per cent of control: 99%
ANKK1 (human)
  kinase still bound, per cent of control: 100%
HIPK2 (human)
  kinase still bound, per cent of control: 90%
DAPK2 (human)
  kinase still bound, per cent of control: 93%
STK35 (human)
  kinase still bound, per cent of control: 87%
CDC2L2 (human)
  kinase still bound, per cent of control: 100%
HIPK3 (human)
  kinase still bound, per cent of control: 100%
MAP2K4 (human)
  kinase still bound, per cent of control: 79%
